Assay results: US9034812B2, “Compositions and methods for treating biofilms” (Ohio University, priority 2011, dated 2015)

Tests used:
[1] = tested on: D. vulgaris (ATCC 7757) SRB biofilm; test: Prevention of SRB biofilm establishment on carbon steel coupons (Example 1): sessile cell count and SEM; format: cell-based, Desulfovibrio vulgaris; conditions: alone; for Sessile SRB cells on coupon surface (SEM), biofilm prevention: 7-day coupons
Method: D. vulgaris (ATCC 7757), a laboratory SRB strain, was cultured in ATCC 1249 medium. Quarter strength medium with only four key ingredients, i.e., MgSO4, sodium lactate, Fe(NH4)2(SO4)2 and yeast extract at concentrations ¼ of those in the full ATCC 1249 medium was also used to simulate a less nutritious environment. […] SRB culture media were sterilized in an autoclave and then deoxygenated using N2 (filter sterilized) sparging. SRB cells were enumerated using an SRB test kit (Sani-Check® Product #100, Biosan Laboratories, Warren, Mich., USA). […] Below this cell count, it is hard to catch an individual cell under the light microscope. The Most Probable Number (MPN) enumeration method is a standard method to estimate very low cell counts. MPN succeeds by growing the cells first and correlating the cell counts with the appearance of black color (due to FeS produced by SRB). […] The SRB test kit used in this example is equivalent to an MPN method using a solid medium instead of a liquid medium.
Anaerobic vials used in this example were 125 ml (Catalog No. 223748, Wheaton Industries Inc., 143 Millville, N.J., USA), each filled with 100 ml of culture medium. A glovebox filled with filter-sterilized N2 provided an anaerobic environment. To mitigate any possible oxygen leaks, 100 ppm L-cysteine (Fisher Scientific, Pittsburgh, Pa., USA), an oxygen scavenger, was added to the culture media. Thin disk shaped C1018 carbon steel coupons with a top disk surface area of 1.12 cm^2 were polished with 200, 400, and 600 grit abrasive papers progressively. Only the top surface of each coupon was exposed to the culture medium. The rest of the surfaces were coated with inert Teflon. After polishing, the coupons were weighed. The coupons were cleaned using isopropanol and then dried under UV light for 15 minutes.
Three duplicate coupons and 1 ml of a 3-day old SRB seed culture were added to each anaerobic vial. The initial SRB cell concentration in each vial immediately after inoculation was approximately 10^6 cells/ml. After adding treatment chemical(s) following inoculation, the vials were sealed and then incubated at 37° C. After 7 days of incubation, the biofilm on a coupon surface was observed under SEM. The procedure to prepare a coupon for SEM observation of a biofilm was described by Wen et al., Inter. […] Au coating of the biofilm covered coupon was necessary for SEM because the biofilm was not conductive. An SEM image was taken for the spot with most sessile cells after screening three duplicate coupons. A special control coupon was inserted in a vial containing the culture medium without biocide treatment and incubated without inoculation. This abiotic control would indicate yellow rust if an oxygen leak occurred. Its surface was also scanned for sessile cells under SEM for possible microbial contamination. Care was also taken to identify sessile cells that looked different from D. vulgaris during biofilm observation under SEM, which would indicate microbial contamination.
To obtain the average sessile cell density on a coupon surface, the sessile cells were first scraped off from the surface of a duplicate coupon onto a brush-like dipstick of the SRB test kit handled with sterile tweezers. The dipstick was wetted with deoxygenated water before scraping. Most of the sessile cells were collected by the dipstick. […]

[2] = tested on: D. vulgaris (ATCC 7757) SRB biofilm; test: Prevention of SRB biofilm establishment (Example 2): sessile cell count (MPN) and SEM; format: cell-based, Desulfovibrio vulgaris; conditions: 100 ppm, alone, 7 days; for Sessile SRB cells on coupon (SEM), biofilm prevention: full-strength medium
Method: D. vulgaris (ATCC 7757), a common SRB strain, was used in this example. Before inoculation, the culture media were autoclave sterilized and then sparged with filter-sterilized nitrogen for at least 45 minutes to remove dissolved oxygen. SRB growth was carried out in 125 ml anaerobic vials (Catalog No. 223748, Wheaton Industries Inc., Millville, N.J., USA) filled with 100 ml culture medium. In the test, 1 ml SRB seed culture was used to inoculate each anaerobic vial to achieve an SRB concentration of 10^6 cells/ml right after inoculation. The full-strength ATCC 1249 medium with 200 ppm Fe^2+ was used to grow SRB biofilm on coupon surfaces.
It was neutralized to pH 7.0 by adding a sodium hydroxide solution. Coin shaped C1018 carbon steel coupons with a top exposed surface area of 1.12 cm^2 were used as substratum for SRB growth. The side and bottom surfaces were coated with inert Teflon. The top surface was polished sequentially by 200, 400, and 600 grit abrasive papers. Nitrogen sparging was used to remove dissolved oxygen in all liquids and to provide an anaerobic environment in a glove box. 100 ppm L-cysteine (Fisher Scientific, Pittsburgh, Pa., USA) was added to the culture media as an oxygen scavenger to mitigate any possible oxygen leak.
One milliliter of SRB seed culture was added at the beginning of the tests and the vials were sealed and incubated at 37° C. without shaking. After 7 days, the coupons were taken out and examined for sessile SRB cells.
(§1) The procedure to prepare a coupon for SEM observation of a biofilm on a coupon surface was described by Wen et al., Inter. Biodeter. Biodegr., (2009), 63:1102-1106. […] Thus, an SEM image was taken after searching for a spot with the most sessile cells. The cells seen in the SEM images should not be used to count the sessile cells because of uneven distribution. Instead, the Most Probable Number (MPN) method was used to enumerate sessile cells. SEM images could be used as qualitative visual confirmation of biofilm removal.
(§2) Viable D. vulgaris cells can be seen as motile cells under a light microscope at 400×. Thus they can be counted using a hemocytometer. However, this method has a detection limit of 5×10^4 cells/ml minimum at 400× magnification. It is a standard practice to enumerate very low cell counts using the semi-quantitative most probable number (MPN) method with a liquid culture medium or a solid medium. The accuracy of MPN is typically 1 log in cell numbers. Thus, it takes at least a 2-log reduction to assure the efficacy of a biocide system. In this example, the sessile cells on a coupon were scraped and collected in a test tube by using the brush-like dipstick that was part of an SRB test kit (Sani-Check® Product #100 from Biosan Laboratories, Warren, Mich., USA). The dipstick was then soaked in 10 ml sterilized distilled water and vortexed for 30 s. Finally, the dipstick was inserted into the test kit's vial containing a solid SRB culture medium. The SRB sessile cell concentration was based on how long it took for the black color (FeS) to appear in the medium around the dipstick. The tests were repeated three separate times. Each time, two coupons were used for sessile SRB cell counting.

[3] = tested on: mature D. vulgaris (ATCC 7757) SRB biofilm; test: Removal of established SRB biofilm, 1-h and 3-h simulated slug treatment (Example 2); format: cell-based, Desulfovibrio vulgaris; conditions: alone
Method: The full-strength ATCC 1249 medium was used to grow SRB biofilms on coupon surfaces first. […] In the anaerobic chamber, the coupons were taken out and rinsed with phosphate buffered saline (PBS) buffer to remove loose planktonic cells. The coupons were then placed into petri dishes containing treatment chemicals in a water solution. Some coupons were treated for 1 h and some for 3 h. This simulated slug treatment with a contact time lasting 1 and 3 h, respectively, as in the situation when a biocide slug flows inside a pipeline. Flow effect was not considered here. Exposing SRB cells on a coupon from the ATCC 1249 medium to a water solution lacking salt ions might cause osmotic shock that could interfere with the biocide efficacy evaluation. Instead of using PBS buffer commonly used in cell cultures, two salts in the original medium, MgSO4 and (NH4)2Fe(SO4)2, were added to the 1 and 3-h treatment solutions at ¼ of their corresponding concentrations in the full-strength ATCC 1249 medium. The treated coupons were then removed and examined for sessile SRB cells. The diluted medium was used here to simulate the residual nutrients retained by the local biofilms when the bulk pipeline or tank fluid is displaced by the biocide solution during a field treatment.
as §1, §2

[4] = tested on: D. vulgaris (ATCC 7757) SRB biofilm; test: Mitigation of MIC pitting and weight loss of C1018 carbon steel coupons (Example 1); design: species or system Desulfovibrio vulgaris; conditions: 50 ppm, alone; 7 days
Description: The coupons for SEM used in above in “Prevention of Biofilm Establishment” were reused to observe the MIC pitting after their biofilms and Au coating were removed using the Clark's solution. Coupon weight loss data were obtained from another duplicate coupon in each vial. The coupon surface was cleaned to remove biofilms and mineral deposits using the Clark's solution before weighing.

Compound: CC(C)C[C@@H](N)C(=O)O [D-leucine]
- Sessile cell count ([1]; 500 ppm, after 7 days, ATCC 1249 medium): ≧10^5 cells/cm^2

Compound: CSCC[C@@H](N)C(=O)O [D-methionine]
- Sessile SRB cells on coupon surface (SEM), biofilm prevention ([1]; 500 ppm): had sessile SRB cells on their surfaces

Compound: N[C@H](Cc1c[nH]c2ccccc12)C(=O)O [D-tryptophan]
- Sessile SRB cells on coupon surface (SEM), biofilm prevention ([1]; 100 ppm): ineffective

Compound: N[C@H](Cc1ccc(O)cc1)C(=O)O [D-tyrosine]
- Sessile SRB cells on coupon surface (SEM), biofilm prevention ([1]; 10 ppm): not effective in preventing SRB biofilm formation
- Reduction of SRB sessile cells versus untreated control [2]: 1 log
- Sessile SRB cells on coupon (SEM), biofilm prevention [2]: completely ineffective
- Sessile SRB cells on coupon (SEM), 1-h shock treatment ([3]; 100 ppm, 1 h): left many sessile cells on the coupon surface
- Sessile cell count for 3-h treatment ([3]; 100 ppm): ≧10^5 cells/cm^2

Compound: Tetrakis hydroxymethyl phosphonium sulfate [THPS]
- Sessile SRB cells on coupon surface (SEM), biofilm prevention ([1]; 100 ppm): had sessile SRB cells on their surfaces
- Normalized coupon weight loss (average) [4]: 0.65 mg/cm^2
- Kill of SRB sessile cells [2]: 99.999%
- Reduction of SRB sessile cells versus untreated control [2]: 5 log
- Sessile SRB cells on coupon (SEM), biofilm prevention [2]: partially effective
- Reduction of sessile SRB concentration versus control ([3]; 50 ppm, 1 h): 2 log
- Sessile SRB cells on coupon (SEM), 1-h shock treatment ([3]; 50 ppm, 1 h): numerous sessile SRB cells remained
- Sessile cell count for 1-h treatment ([3]; 50 ppm, 1 h): ≧10^4 cells/cm^2
- Sessile cell count for 3-h treatment ([3]; 50 ppm): ≧10^3 cells/cm^2
